The values below come from patent US20050159345A1 (Boehringer Ingelheim International GmbH, priority 2002, published 2005).

pIC50: −log10 of the molar value. Read-outs that look alike come from different tables or passages of the source.

The target in assay [1] is T1, HCV 1a NS3-NS4A heterodimer protein (Hepatitis C virus genotype 1a, UniProt P27958).
T1 construct: Co-purification of mature NS3 and NS4A protein complex was verified by Western blot analysis; made in house; host or cells: Sf21 insect cells, recombinant baculovirus (pFastBac HTa)
T1 sequence (P27958 1027-1657): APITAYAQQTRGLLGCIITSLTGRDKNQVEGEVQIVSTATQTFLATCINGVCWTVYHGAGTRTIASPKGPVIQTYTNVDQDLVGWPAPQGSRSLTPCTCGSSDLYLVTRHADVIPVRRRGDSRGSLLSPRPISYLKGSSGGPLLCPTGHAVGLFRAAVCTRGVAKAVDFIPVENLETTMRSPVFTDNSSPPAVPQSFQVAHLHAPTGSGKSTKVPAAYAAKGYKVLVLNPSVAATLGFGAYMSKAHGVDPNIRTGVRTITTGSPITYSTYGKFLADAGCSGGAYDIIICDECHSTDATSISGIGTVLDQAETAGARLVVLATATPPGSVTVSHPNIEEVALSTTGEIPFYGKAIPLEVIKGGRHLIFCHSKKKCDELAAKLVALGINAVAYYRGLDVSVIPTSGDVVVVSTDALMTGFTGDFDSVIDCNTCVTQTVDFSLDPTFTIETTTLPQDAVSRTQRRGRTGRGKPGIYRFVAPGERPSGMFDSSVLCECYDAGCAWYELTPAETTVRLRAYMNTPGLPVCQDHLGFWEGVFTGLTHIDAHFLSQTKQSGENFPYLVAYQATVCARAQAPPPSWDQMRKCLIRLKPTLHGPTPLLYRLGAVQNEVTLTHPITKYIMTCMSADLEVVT
T1 sequence (P27958 1658-1711): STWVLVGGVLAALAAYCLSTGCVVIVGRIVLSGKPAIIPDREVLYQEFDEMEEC
In words: In vitro HCV NS3 protease assay (fluorogenic depsipeptide), genotype 1a. The assay is classed as biochemical.
Description: For production of the HCV genotype 1b NS3-NS4A heterodimer protein, a full-length HCV cDNA was cloned by RT-PCR using RNA extracted from the serum of an HCV genotype 1b infected individual (provided by Dr. Bernard Willems, Hôpital St-Luc, Montréal, Canada). […] For HCV genotype 1a, the DNA encoding NS3-NS4A heterodimer protein was PCR-amplified (forward primer: 5′[sequence]3′ (SEQ ID No.3); reverse primer: 5′[sequence]3′ (SEQ ID No.4)) from the HCV genotype la strain H77 (provided by ViroPharma Inc., Exton, Pa., U.S.) and subcloned as described above. The cloning into the pFastBac™ HTa baculovirus expression vector generated a recombinant fusion protein containing an additional N-terminal 28 residues that comprised a hexahistidine tag and a rTEV protease cleavage site. The Bac-to-Bac™ baculovirus expression system (Gibco/BRL) was used to produce the recombinant baculovirus for protein expression.
His-tagged NS3-NS4A heterodimer protease was expressed by infecting Sf21 insect cells (Invitrogen) at a density of 10^6 cells/mL with the recombinant baculovirus at a multiplicity of infection of 0.1-0.2 at 27° C. The infected culture was harvested 48 to 64 h later by centrifugation at 4° C. The cell pellet was homogenized in 50 mM sodium phosphate, pH 7.5, 40% glycerol (w/v), 2 mM β-mercaptoethanol. His-NS3-NS4A heterodimer protease was then extracted from the cell lysate with 1.5% NP-40, 0.5% Triton X-100, 0.5M NaCl, and a DNase treatment. […]

The target in assay [2] is T2, HCV 3a NS3-NS4A heterodimer protein (UniProt Q81258).
T2 construct: fused on or other part: 28 extra N-terminal residues with a hexahistidine tag and an rTEV cleavage site
T2 sequence (Q81258 1033-1663): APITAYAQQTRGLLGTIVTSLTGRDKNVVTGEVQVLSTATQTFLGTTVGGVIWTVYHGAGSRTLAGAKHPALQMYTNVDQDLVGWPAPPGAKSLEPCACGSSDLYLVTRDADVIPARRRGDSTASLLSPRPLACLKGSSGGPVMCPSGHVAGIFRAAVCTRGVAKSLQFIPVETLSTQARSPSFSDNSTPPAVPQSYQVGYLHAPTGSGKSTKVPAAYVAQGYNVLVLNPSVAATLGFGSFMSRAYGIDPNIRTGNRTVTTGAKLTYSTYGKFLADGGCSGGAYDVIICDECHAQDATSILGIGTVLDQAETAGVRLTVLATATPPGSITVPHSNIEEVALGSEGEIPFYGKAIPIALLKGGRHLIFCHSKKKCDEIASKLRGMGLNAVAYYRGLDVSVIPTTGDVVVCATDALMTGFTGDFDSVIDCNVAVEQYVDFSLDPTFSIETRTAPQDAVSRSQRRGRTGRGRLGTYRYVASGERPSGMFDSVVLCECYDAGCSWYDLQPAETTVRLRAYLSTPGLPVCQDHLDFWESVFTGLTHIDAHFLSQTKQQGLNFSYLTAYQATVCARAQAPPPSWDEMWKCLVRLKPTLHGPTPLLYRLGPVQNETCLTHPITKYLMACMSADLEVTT
In words: In vitro HCV NS3 protease assay (fluorogenic depsipeptide), genotype 3a. Type of assay: biochemical, HCV genotype 3a. To be noted: read-out: IC50 HCV-3a; HCV 3a NS3-NS4A protease. The text has this: (§1) The NS3-NS4 protease genes of HCV genotypes 2b and 3a were amplified from RNA isolated from clinical samples of HCV-infected patients obtained from Dr. G. Steinmann (Germany) using RT-PCR. The primers used for the RT-PCR were 5′[…]3′ (SEQ ID No. 6) as the forward and 5′[…]3′ (SEQ ID No.7) as the reverse primer for the NS3-NS4A of HCV genotype 2b and; 5′[…]3′ (SEQ ID No. 8) as the forward and 5′[…]3′ (SEQ ID No. 9) as the reverse primer for HCV genotype 3a. Each primer contained a unique restriction site for subcloning the fragment in the bacterial expression vector pET11a. The cloning into the vector generated a recombinant fusion protein containing an additional N-terminal 28 residues that comprised a hexahistidine tag and a rTEV protease cleavage site. The recombinant plasmids were used to transform the bacterial strain BL21 DE3 pLysS for protein expression and recombinant protein expression was induced by the addition of IPTG. Following expression, the cells were collected by centrifugation at 4° C. and the cell pellet lysed in a buffer containing 50 mM sodium phosphate, 0.5M NaCl, 40% glycerol, 1.5% NP-40, 0.5% Triton X-100 and the soluble protein fraction was passed through a 5ml HiTrap chelating affinity column as described above. A poly(U)-Sepharose purification step can optionally be conducted in order to remove degradation products and contaminants. […]
(§2) The fluorescence was monitored using the BMG POLARstar Galaxy 96-well plate reader with an excitation filter of 320 nm, and an emission filter of 405 nm. The level of inhibition (% inhibition) of each well containing test compound was calculated with the following equation (FU=fluorescence unit): [formula]
(§3) The calculated % inhibition values were then used to determine IC50, slope factor (n) and maximum inhibition (Imax) by the non-linear regression routine NLIN procedure of SAS using the following equation: [formula] […]

Assay [3] has as its target T3, HCV 2b NS3-NS4A heterodimer protein (UniProt P26661).
T3 construct: fused on or other part: 28 extra N-terminal residues with a hexahistidine tag and an rTEV cleavage site
T3 sequence (P26661 1031-1661): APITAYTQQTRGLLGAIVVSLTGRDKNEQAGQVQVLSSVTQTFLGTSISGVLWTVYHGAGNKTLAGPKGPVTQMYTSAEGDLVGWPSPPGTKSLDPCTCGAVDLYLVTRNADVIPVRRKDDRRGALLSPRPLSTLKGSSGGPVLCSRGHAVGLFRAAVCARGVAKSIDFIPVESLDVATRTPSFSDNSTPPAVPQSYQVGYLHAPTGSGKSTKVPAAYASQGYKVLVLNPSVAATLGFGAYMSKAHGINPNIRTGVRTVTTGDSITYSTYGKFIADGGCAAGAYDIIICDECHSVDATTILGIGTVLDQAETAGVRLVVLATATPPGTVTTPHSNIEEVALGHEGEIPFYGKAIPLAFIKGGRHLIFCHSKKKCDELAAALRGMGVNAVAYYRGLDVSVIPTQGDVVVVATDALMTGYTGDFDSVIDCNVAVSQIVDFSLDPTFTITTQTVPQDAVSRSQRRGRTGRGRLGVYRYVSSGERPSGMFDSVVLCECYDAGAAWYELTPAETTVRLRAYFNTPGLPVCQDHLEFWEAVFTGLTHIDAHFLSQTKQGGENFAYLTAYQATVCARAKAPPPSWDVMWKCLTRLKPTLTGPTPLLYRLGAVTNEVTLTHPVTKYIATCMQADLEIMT
Kind of assay: In vitro HCV NS3 protease assay (fluorogenic depsipeptide), genotype 2b. The assay is classed as biochemical, HCV genotype 2b. The conditions noted are these: read-out: IC50 HCV-2b; HCV 2b NS3-NS4A protease.
Description: as §1, §2, §3

[4] abbreviates: HCV 1a NS3-NS4A protease, read-out: IC50 HCV-1a.

By pIC50 is commonly meant −log10 of the IC50, conventionally taken in molar units. Take `COc1ccc2c(O[C@@H]3C[C@H]4C(=O)N[C@]5(C(=O)O)CC5/C=C\CCCCC[C@H](NC(=O)OC5CCCC5)C(=O)N4C3)cc(-c3csc(NC(C)C)n3)nc2c1` (stereo partly drawn) [IV]: the pIC50 in assay [1] is 8.37; in assay [2], 6.55; in assay [3], 6.59.
On to `COc1ccc2c(O[C@@H]3C[C@H]4C(=O)N[C@]5(C(=O)O)CC5/C=C\CCCCC[C@H](NC(=O)OC(C)(C)C)C(=O)N4C3)cc(-c3csc(NC(C)=O)n3)nc2c1` (stereo partly drawn) [III], for which the results for the pIC50 in assay [1] (setting [4]), in assay [2] and in assay [3] were 8.39, 6.72 and 6.29, respectively.
In the same order, the values of `COc1ccc2c(O[C@@H]3C[C@H]4C(=O)N[C@]5(C(=O)O)CC5/C=C\CCCCC[C@H](NC(=O)OC(C)(C)C)C(=O)N4C3)cc(-c3ccccc3)nc2c1` (stereo partly drawn) [II] are 8.11, 6.44 and 6.00.
